Laboratory results published in ChEMBL document CHEMBL3217491, “Design, synthesis and biological evaluation of imidazopyridine/pyrimidine-chalcone derivatives as potential anticancer agents” (2010).
Active and inactive are the calls of the source. The rule behind the calls is not given here.

What was measured:
HOP-62 = assay: Growth inhibition of human HOP62 cells after 48 hrs by SRB assay; format: functional; conditions: HOP-62, 48 h
CCRF-CEM = assay: Growth inhibition of human CCRF-CEM cells after 48 hrs by SRB assay; format: functional
NCI-H322M = assay: Growth inhibition of human NCI-H322M cells after 48 hrs by SRB assay; format: functional
[1] = Growth inhibition of human SF539 cells after 48 hrs by SRB assay; format: functional; conditions: SF-539, 48 h
TK-10 = assay: Growth inhibition of human TK10 cells after 48 hrs by SRB assay; format: functional; conditions: TK-10, 48 h
[2] = Growth inhibition of human BT549 cells after 48 hrs by SRB assay; format: functional; conditions: BT-549, 48 h
MCF7 [3] = assay: Cell cycle arrest in human MCF7 cells assessed as accumulation at G0/G1 phase at 4 uM after 24 hrs by propidium iodide staining-based flow cytometry (reference value: 64.04%); format: functional
Malme-3M = assay: Growth inhibition of human MALME-3M cells after 48 hrs by SRB assay; format: functional
HL-60(TB) = assay: Growth inhibition of human HL-60(TB) cells after 48 hrs by SRB assay; format: functional; conditions: HL-60, 48 h
HCT-116 = assay: Growth inhibition of human HCT116 cells after 48 hrs by SRB assay; format: functional; conditions: HCT-116, 48 h
NCI-H226 = assay: Growth inhibition of human NCI-H226 cells after 48 hrs by SRB assay; format: functional; conditions: NCI-H226, 48 h
SK-MEL-28 = assay: Growth inhibition of human SK-MEL-28 cells after 48 hrs by SRB assay; format: functional; conditions: SK-MEL-28, 48 h
A549 = assay: Growth inhibition of human A549 cells after 48 hrs by SRB assay; format: functional; conditions: A549, 48 h
IGROV-1 = assay: Growth inhibition of human IGROV1 cells after 48 hrs by SRB assay; format: functional; conditions: IGROV-1, 48 h
[4] = Growth inhibition of human SF295 cells after 48 hrs by SRB assay; format: functional; conditions: SF-295, 48 h
MDA-MB-231 = assay: Growth inhibition of human MDA-MB-231 cells after 48 hrs by SRB assay; format: functional; conditions: MDA-MB-231, 48 h
MCF7 [5] = assay: Cell cycle arrest in human MCF7 cells assessed as accumulation at S phase at 4 uM after 24 hrs by propidium iodide staining-based flow cytometry (reference value: 20.17%); format: functional
HT-29 = assay: Growth inhibition of human HT-29 cells after 48 hrs by SRB assay; format: functional; conditions: HT-29, 48 h
[6] = Growth inhibition of human HOP92 cells after 48 hrs by SRB assay; format: functional; conditions: HOP-92, 48 h
K562 = assay: Growth inhibition of human K562 cells after 48 hrs by SRB assay; format: functional; conditions: K562, 48 h
COLO 205 = assay: Growth inhibition of human COLO205 cells after 48 hrs by SRB assay; format: functional; conditions: COLO 205, 48 h
[7] = Growth inhibition of human RXF393 cells after 48 hrs by SRB assay; format: functional; conditions: RXF 393, 48 h
MCF7 [8] = assay: Growth inhibition of human MCF7 cells after 48 hrs by SRB assay; format: functional; conditions: MCF7, 48 h
NCI-H23 = assay: Growth inhibition of human NCI-H23 cells after 48 hrs by SRB assay; format: functional; conditions: NCI-H23, 48 h
MCF7 [9] = assay: Cell cycle arrest in human MCF7 cells assessed as accumulation at G2/M phase at 4 uM after 24 hrs by propidium iodide staining-based flow cytometry (reference value: 15.79%); format: functional
[10] = Growth inhibition of human UO31 cells after 48 hrs by SRB assay; format: functional; conditions: UO-31, 48 h
[11] = Growth inhibition of human HCC2998 cells after 48 hrs by SRB assay; format: functional; conditions: HCC 2998, 48 h
SR = assay: Growth inhibition of human SR cells after 48 hrs by SRB assay; format: functional
[12] = Growth inhibition of human UACC62 cells after 48 hrs by SRB assay; format: functional; conditions: UACC-62, 48 h
[13] = Growth inhibition of human OVCAR4 cells after 48 hrs by SRB assay; format: functional; conditions: OVCAR-4, 48 h
U-251 = assay: Growth inhibition of human U251 cells after 48 hrs by SRB assay; format: functional; conditions: U-251, 48 h
[14] = Growth inhibition of human HCT15 cells after 48 hrs by SRB assay; format: functional; conditions: HCT-15, 48 h
ACHN = assay: Growth inhibition of human ACHN cells after 48 hrs by SRB assay; format: functional
SK-OV-3 = assay: Growth inhibition of human SKOV3 cells after 48 hrs by SRB assay; format: functional; conditions: SK-OV-3, 48 h
[15] = Growth inhibition of human NCI-ADR-RES cells after 48 hrs by SRB assay; format: functional
SK-MEL-5 = assay: Growth inhibition of human SK-MEL-5 cells after 48 hrs by SRB assay; format: functional; conditions: SK-MEL-5, 48 h
NCI-H522 = assay: Growth inhibition of human NCI-H522 cells after 48 hrs by SRB assay; format: functional; conditions: NCI-H522, 48 h
KM12 = assay: Growth inhibition of human KM12 cells after 48 hrs by SRB assay; format: functional; conditions: KM12, 48 h
MDA-MB-468 = assay: Growth inhibition of human MDA-MB-468 cells after 48 hrs by SRB assay; format: functional; conditions: MDA-MB-468, 48 h
[16] = Growth inhibition of human UACC257 cells after 48 hrs by SRB assay; format: functional; conditions: UACC-257, 48 h
PC-3 = assay: Growth inhibition of human PC3 cells after 48 hrs by SRB assay; format: functional; conditions: PC-3, 48 h
[17] = Growth inhibition of human OVCAR5 cells after 48 hrs by SRB assay; format: functional; conditions: OVCAR-5, 48 h
MDA-MB-435 = assay: Growth inhibition of human MDA-MB-435 cells after 48 hrs by SRB assay; format: functional; conditions: MDA-MB-435, 48 h
786-0 = assay: Growth inhibition of human 786-0 cells after 48 hrs by SRB assay; format: functional; conditions: 786-0, 48 h
CAKI-1 = assay: Growth inhibition of human Caki1 cells after 48 hrs by SRB assay; format: functional; conditions: CAKI-1, 48 h
SF-268 = assay: Growth inhibition of human SF268 cells after 48 hrs by SRB assay; format: functional; conditions: SF-268, 48 h
RPMI-8226 = assay: Growth inhibition of human RPMI8226 cells after 48 hrs by SRB assay; format: functional; conditions: RPMI-8226, 48 h
SNB-75 = assay: Growth inhibition of human SNB75 cells after 48 hrs by SRB assay; format: functional; conditions: SNB-75, 48 h
[18] = Growth inhibition of human Hs578T cells after 48 hrs by SRB assay; format: functional; conditions: Hs-578T
[19] = Growth inhibition of human OVCAR8 cells after 48 hrs by SRB assay; format: functional; conditions: OVCAR-8, 48 h
NCI-H460 = assay: Growth inhibition of human NCI-H460 cells after 48 hrs by SRB assay; format: functional; conditions: NCI-H460, 48 h
[20] = Growth inhibition of human OVCAR3 cells after 48 hrs by SRB assay; format: functional; conditions: OVCAR-3, 48 h
T47D = assay: Growth inhibition of human T47D cells after 48 hrs by SRB assay; format: functional
[21] = Growth inhibition of human MOLT4 cells after 48 hrs by SRB assay; format: functional; conditions: MOLT-4, 48 h
DU-145 = assay: Growth inhibition of human DU145 cells after 48 hrs by SRB assay; format: functional; conditions: DU-145, 48 h
M14 = assay: Growth inhibition of human M14 cells after 48 hrs by SRB assay; format: functional; conditions: M14, 48 h
SK-MEL-2 = assay: Growth inhibition of human SK-MEL-2 cells after 48 hrs by SRB assay; format: functional; conditions: SK-MEL-2, 48 h
A498 = assay: Growth inhibition of human A498 cells after 48 hrs by SRB assay; format: functional; conditions: A498, 48 h
[22] = Growth inhibition of human EKVX cells after 48 hrs by SRB assay; format: functional
[23] = Growth inhibition of human LOXIMVI cells after 48 hrs by SRB assay; format: functional; conditions: LOX IMVI
SN12C = assay: Growth inhibition of human SN12C cells after 48 hrs by SRB assay; format: functional
SNB-19 = assay: Growth inhibition of human SNB19 cells after 48 hrs by SRB assay; format: functional; conditions: SNB-19, 48 h
SW-620 = assay: Growth inhibition of human SW620 cells after 48 hrs by SRB assay; format: functional; conditions: SW-620, 48 h
MCF7 [24] = assay: Growth inhibition of human MCF7 cells assessed as cell viability at 4 uM after 24 hrs by MTT assay; format: functional, cell-based

COc1cc(C(=O)/C=C/c2c(C(F)(F)F)nc3ccccn23)cc(OC)c1OC
GI50 (HOP-62): 2970 nM
GI50 (CCRF-CEM): 4150 nM
GI50 (NCI-H322M): 1660 nM
GI50 [1]: 1630 nM
GI50 (TK-10): 2090 nM
GI50 [2]: 1640 nM
Activity (MCF7 [3]): 95.24%
GI50 (Malme-3M): 1570 nM
GI50 (HL-60(TB)): 4120 nM
GI50 (HCT-116): 1260 nM
GI50 (NCI-H226): 3550 nM
GI50 (SK-MEL-28): 1930 nM
GI50 (A549): 4040 nM
GI50 (IGROV-1): 2230 nM
GI50 [4]: 1990 nM
GI50 (MDA-MB-231): 4590 nM
Activity (MCF7 [5]): 4.1%
GI50 (HT-29): 1930 nM
GI50 [6]: 2650 nM
GI50 (K562): 2830 nM
GI50 (COLO 205): 2110 nM
GI50 [7]: 1870 nM
GI50 (MCF7 [8]): 1440 nM
GI50 (NCI-H23): 1510 nM
Activity (MCF7 [9]): 0.66%
GI50 [10]: 1490 nM
GI50 [11]: 1830 nM
GI50 (SR): 2910 nM
GI50 [12]: 2050 nM
GI50 [13]: 4100 nM
GI50 (U-251): 1290 nM
GI50 [14]: 2100 nM
GI50 (ACHN): 1950 nM
GI50 (SK-OV-3): 4040 nM
GI50 [15]: 1410 nM
GI50 (SK-MEL-5): 1620 nM
GI50 (NCI-H522): 1770 nM
GI50 (KM12): 1730 nM
GI50 (MDA-MB-468): 2120 nM
GI50 [16]: 1660 nM
GI50 (PC-3): 3800 nM
GI50 [17]: 1980 nM
GI50 (MDA-MB-435): 2260 nM
GI50 (786-0): 1720 nM
GI50 (CAKI-1): 1820 nM
GI50 (SF-268): 1640 nM
GI50 (RPMI-8226): 1980 nM
GI50 (SNB-75): 1760 nM
GI50 [18]: 3270 nM
GI50 [19]: 3390 nM
GI50 (NCI-H460): 2010 nM
GI50 [20]: 1830 nM
GI50 (T47D): 3520 nM
GI50 [21]: 3730 nM
GI50 (DU-145): 1610 nM
GI50 (M14): 1820 nM
GI50 (SK-MEL-2): 2430 nM
GI50 (A498): 2400 nM
GI50 [22]: 2370 nM
GI50 [23]: 1660 nM
GI50 (SN12C): 2090 nM
GI50 (SNB-19): 1930 nM
GI50 (SW-620): 1680 nM
inhibition (MCF7 [24]): Active
